Reference: PubChem BioAssay (NCI)
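Protocol summary: plate cells (96-well), add compound at 5 concentrations, incubate 48 h, interpolate endpoints linearly. TGI marks complete inhibition of growth.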

Experiments:
Test in all cases: DTP human tumour cell line panel, 48 h
MDA-MB-435 = system: MDA-MB-435
CCRF-CEM leukemia = system: CCRF-CEM leukemia
SK-MEL-28 melanoma = system: SK-MEL-28 melanoma
HL-60(TB) leukemia = system: HL-60(TB) leukemia
SNB-19 CNS = system: SNB-19 CNS
NCI/ADR-RES ovarian = system: NCI/ADR-RES ovarian
SNB-75 CNS = system: SNB-75 CNS
SF-539 CNS = system: SF-539 CNS
MALME-3M melanoma = system: MALME-3M melanoma
MOLT-4 leukemia = system: MOLT-4 leukemia
UO-31 renal = system: UO-31 renal
IGROV1 ovarian = system: IGROV1 ovarian
OVCAR-3 ovarian = system: OVCAR-3 ovarian
UACC-257 melanoma = system: UACC-257 melanoma
HCT-116 colon = system: HCT-116 colon
RPMI-8226 leukemia = system: RPMI-8226 leukemia
SN12C renal = system: SN12C renal
HS 578T breast = system: HS 578T breast
COLO 205 colon = system: COLO 205 colon
HT29 colon = system: HT29 colon
SK-MEL-2 melanoma = system: SK-MEL-2 melanoma
BT-549 breast = system: BT-549 breast
K-562 leukemia = system: K-562 leukemia
MDA-N = system: MDA-N
HOP-62 NSCLC = system: HOP-62 NSCLC
NCI-H460 lung = system: NCI-H460 lung
A498 renal = system: A498 renal
MCF7 breast = system: MCF7 breast
HCC-2998 colon = system: HCC-2998 colon
KM12 colon = system: KM12 colon
OVCAR-8 ovarian = system: OVCAR-8 ovarian
SR leukemia = system: SR leukemia
NCI-H226 lung = system: NCI-H226 lung
A549 NSCLC = system: A549 NSCLC
OVCAR-5 ovarian = system: OVCAR-5 ovarian
OVCAR-4 ovarian = system: OVCAR-4 ovarian
SF-268 CNS = system: SF-268 CNS
NCI-H23 lung = system: NCI-H23 lung
ACHN renal = system: ACHN renal
LOX IMVI melanoma = system: LOX IMVI melanoma
SF-295 CNS = system: SF-295 CNS
UACC-62 melanoma = system: UACC-62 melanoma
CAKI-1 renal = system: CAKI-1 renal
HOP-92 NSCLC = system: HOP-92 NSCLC
HCT-15 colon = system: HCT-15 colon
786-0 renal = system: 786-0 renal
EKVX NSCLC = system: EKVX NSCLC
RXF 393 renal = system: RXF 393 renal
PC-3 prostate = system: PC-3 prostate
SW-620 colon = system: SW-620 colon
SK-MEL-5 melanoma = system: SK-MEL-5 melanoma
NCI-H522 lung = system: NCI-H522 lung
M14 melanoma = system: M14 melanoma
SK-OV-3 ovarian = system: SK-OV-3 ovarian
T-47D breast = system: T-47D breast
DU-145 prostate = system: DU-145 prostate

Measured: TGI

CCOc1cc(NC(C)=O)ccc1C(=O)NN1C(=O)/C(=C/c2ccco2)N=C1c1ccccc1
> 100 µM: all assays above
